Assay results reported in US12329158B2, “Large-scale methods of uniformly coating packaging surfaces with a volatile antimicrobial to preserve food freshness” (AGROFRESH INC., priority 2013, dated 2025).
Values after ≈ are worked out from the molar mass of the structure shown.

How the values were obtained:
[1] = test system: Monilinia fructicola; test: Volatile MIC assay (Example 9); type: cell-based; conditions: 72 h, headspace concentration, 3 days at 23 C, read-out: MIC (mg/L) MONIFC
Procedure: (§1) A 3-mL volume of full-strength Potato Dextrose Agar (PDA) is added to each well. […] Plates are inoculated immediately prior to volatile fungicide treatment. A Whatman #1 filter disk (Cat. No. 1001-0155) is placed, in duplicate, on the underside of a polyethylene PCR plate sealing film. […] The acetone is permitted to evaporate for 5 minutes. The headspace around the inoculum is then sealed inside the well by the film with the adhering disk containing the fungicide by inverting the plates over the treated disks and sealing to prevent any of the chemical from flaking from the disk and falling onto the inoculated agar.

[2] = test system: Penicillium expansum; test: Volatile MIC assay (Example 9); type: cell-based; conditions: 72 h, headspace concentration, 3 days at 23 C, read-out: MIC (mg/L) PENIEX
Procedure: as §1

[3] = test system: Alternaria alternata; test: Volatile MIC assay (Example 9); type: cell-based; conditions: 72 h, headspace concentration, 3 days at 23 C, read-out: MIC (mg/L) ALTEAL
Procedure: as §1

[4] = test system: Glomerella cingulata; test: Volatile MIC assay (Example 9); type: cell-based; conditions: Colletotrichum gloeosporioides, 72 h, headspace concentration, 3 days at 23 C, read-out: MIC (mg/L) GLOMCI
Procedure: as §1

[5] = test system: Botrytis cinerea; test: Volatile MIC assay (Example 9); type: cell-based; conditions: 72 h, headspace concentration, 3 days at 23 C, read-out: MIC (mg/L) BOTRCI
Procedure: as §1

[6] = test system: Penicillium digitatum; test: Green mold on orange, volatile assay (Example 25); type: in vivo; conditions: 50 mg/L, day 3 at 21 C after 5 days at 1 C
[7] = test system: Botrytis cinerea; test: Painting on base, lid or base and lid of clamshells; strawberries (Example 6); type: in vivo
Procedure: Five milligrams of Compound A was dissolved in 1 ml of ethanol prior to being uniformly administered to the interior of the clamshell by painting or spraying, and then dried for 5 minutes. After coating the clamshells with Compound A using various application techniques (i.e., sublimation, spraying, or painting), eight ethanol-washed strawberries were placed in the clamshell with stem end facing downwards. Each strawberry fruit was wounded using a T15 screwdriver tip to a uniform depth of eight mm (8 mm). […] Uninoculated strawberries were removed from their commercial package, and directly transferred into treated clamshells without any washing or inoculation steps.
Treated clamshells lids were closed, and then placed at 1° C. for an initial time period of 5 days. Clamshells were then removed from low temperature, and held for a second time period of 6 days at room temperature where the point of inoculation on the strawberry fruits was assessed for indication of disease incidence reported as a percentage (%). Severity of disease incidence was also reported.
This in vivo assay was used to evaluate the ability of Compound A to volatilize from different locations of a clamshell (i.e., the base and/or the lid of the clamshell) in order to control or inhibit fruit infection by pathogenic microorganism, Botrytis cinerea. This experiment was conducted exactly as described in Example 1, with a few exceptions. Compound A was administered to the clamshell by painting only. 5 mg of Compound A was painted onto the surface of the base of the clamshell or the lid of the clamshell (i.e., 5 mg/clamshell treatment rate). 2.5 mg of Compound A was painted onto the base and the lid of the clamshell (for a total of 5 mg/clamshell treatment rate). The clamshell was then permitted to dry for 5 minutes. Strawberries were inoculated with Botrytis cinerea, placed within the clamshell for an initial time period of 5 days, and assessed for disease incidence and severity over a second time period of 7 days as described in Example 1.

[8] = Inoculated Fruit, painted on Base and Lid, 2.5/2.5 mg, Day 0
[9] = Inoculated Fruit, painted on Base and Lid, 2.5/2.5 mg, Day 1
[10] = Inoculated Fruit, painted on Base and Lid, 2.5/2.5 mg, Day 2
[11] = Inoculated Fruit, painted on Base and Lid, 2.5/2.5 mg, Day 3
[12] = Inoculated Fruit, painted on Base and Lid, 2.5/2.5 mg, Day 4
[13] = Inoculated Fruit, painted on Base and Lid, 2.5/2.5 mg, Day 5
[14] = Inoculated Fruit, painted on Base and Lid, 2.5/2.5 mg, Day 6
[15] = Inoculated Fruit, painted on Base and Lid, 2.5/2.5 mg, Day 7
[16] = Inoculated Fruit, painted on Base, 5 mg, Day 7
[17] = Uninoculated Fruit, painted on Base, 5 mg, Day 0
[18] = Uninoculated Fruit, painted on Base, 5 mg, Day 1
[19] = Uninoculated Fruit, painted on Base, 5 mg, Day 2
[20] = Uninoculated Fruit, painted on Base, 5 mg, Day 3
[21] = Uninoculated Fruit, painted on Base, 5 mg, Day 4

## OB1OCc2cc(F)ccc21 [Compound A, 5-fluoro-1,3-dihydro-1-hydroxy-2,1-benzoxaborole]
[1]
  MIC: < 0.6 mg/L
[2]
  MIC: 2.2 mg/L (≈ 14.5 µM)
[3]
  MIC: < 0.6 mg/L
[4]
  MIC: < 0.6 mg/L
[5]
  MIC: 2.2 mg/L (≈ 14.5 µM)
[6]
  Orange Sporulation (mm): 0.0 mm
[7]; [8]
  Gray Mold Incidence (%): 0.0%
  Gray Mold Severity (0-4): 0.0
[7]; [9]
  Gray Mold Incidence (%): 0.0%
  Gray Mold Severity (0-4): 0.0
[7]; [10]
  Gray Mold Incidence (%): 0.0%
  Gray Mold Severity (0-4): 0.0
[7]; [11]
  Gray Mold Incidence (%): 0.0%
  Gray Mold Severity (0-4): 0.0
[7]; [12]
  Gray Mold Incidence (%): 0.0%
  Gray Mold Severity (0-4): 0.0
[7]; [13]
  Gray Mold Incidence (%): 0.0%
  Gray Mold Severity (0-4): 0.0
[7]; [14]
  Gray Mold Incidence (%): 0.0%
  Gray Mold Severity (0-4): 0.0
[7]; [15]
  Gray Mold Incidence (%): 0.0%
  Gray Mold Severity (0-4): 0.0
[7]; Inoculated Fruit, painted on Base, 5 mg, Day 0
  Gray Mold Severity (0-4): 0.0
[7]; Inoculated Fruit, painted on Base, 5 mg, Day 1
  Gray Mold Severity (0-4): 0.0
[7]; Inoculated Fruit, painted on Base, 5 mg, Day 2
  Gray Mold Severity (0-4): 0.1
[7]; Inoculated Fruit, painted on Base, 5 mg, Day 3
  Gray Mold Severity (0-4): 0.1
[7]; Inoculated Fruit, painted on Base, 5 mg, Day 4
  Gray Mold Severity (0-4): 0.0
[7]; Inoculated Fruit, painted on Base, 5 mg, Day 5
  Gray Mold Severity (0-4): 0.0
[7]; Inoculated Fruit, painted on Base, 5 mg, Day 6
  Gray Mold Severity (0-4): 0.2
[7]; [16]
  Gray Mold Incidence (%): 18.8%
  Gray Mold Severity (0-4): 0.3
[7]; Inoculated Fruit, painted on Lid, 5 mg, Day 0
  Gray Mold Severity (0-4): 0.0
[7]; Inoculated Fruit, painted on Lid, 5 mg, Day 1
  Gray Mold Severity (0-4): 0.0
[7]; Inoculated Fruit, painted on Lid, 5 mg, Day 2
  Gray Mold Severity (0-4): 0.0
[7]; Inoculated Fruit, painted on Lid, 5 mg, Day 3
  Gray Mold Severity (0-4): 0.0
[7]; Inoculated Fruit, painted on Lid, 5 mg, Day 4
  Gray Mold Severity (0-4): 0.0
[7]; Inoculated Fruit, painted on Lid, 5 mg, Day 5
  Gray Mold Severity (0-4): 0.0
[7]; Inoculated Fruit, painted on Lid, 5 mg, Day 6
  Gray Mold Severity (0-4): 0.0
[7]; Inoculated Fruit, painted on Lid, 5 mg, Day 7
  Gray Mold Severity (0-4): 0.0
[7]; Uninoculated Fruit, painted on Base and Lid, 2.5/2.5 mg, Day 0
  Gray Mold Severity (0-4): 0.0
[7]; Uninoculated Fruit, painted on Base and Lid, 2.5/2.5 mg, Day 1
  Gray Mold Severity (0-4): 0.0
[7]; Uninoculated Fruit, painted on Base and Lid, 2.5/2.5 mg, Day 2
  Gray Mold Severity (0-4): 0.0
[7]; Uninoculated Fruit, painted on Base and Lid, 2.5/2.5 mg, Day 3
  Gray Mold Severity (0-4): 0.2
[7]; Uninoculated Fruit, painted on Base and Lid, 2.5/2.5 mg, Day 4
  Gray Mold Severity (0-4): 0.8
[7]; Uninoculated Fruit, painted on Base and Lid, 2.5/2.5 mg, Day 5
  Gray Mold Severity (0-4): 1.5
[7]; Uninoculated Fruit, painted on Base and Lid, 2.5/2.5 mg, Day 6
  Gray Mold Severity (0-4): 1.5
[7]; Uninoculated Fruit, painted on Base and Lid, 2.5/2.5 mg, Day 7
  Gray Mold Severity (0-4): 1.5
[7]; [17]
  Gray Mold Incidence (%): 0.0%
  Gray Mold Severity (0-4): 0.0
[7]; [18]
  Gray Mold Incidence (%): 0.0%
  Gray Mold Severity (0-4): 0.0
[7]; [19]
  Gray Mold Incidence (%): 0.0%
  Gray Mold Severity (0-4): 0.0
[7]; [20]
  Gray Mold Incidence (%): 0.0%
  Gray Mold Severity (0-4): 0.0
[7]; [21]
  Gray Mold Incidence (%): 2.2%
  Gray Mold Severity (0-4): 0.3
[7]; Uninoculated Fruit, painted on Base, 5 mg, Day 5
  Gray Mold Severity (0-4): 0.8
[7]; Uninoculated Fruit, painted on Base, 5 mg, Day 6
  Gray Mold Severity (0-4): 1.2
[7]; Uninoculated Fruit, painted on Base, 5 mg, Day 7
  Gray Mold Severity (0-4): 1.5
[7]; Uninoculated Fruit, painted on Lid, 5 mg, Day 0
  Gray Mold Severity (0-4): 0.0
[7]; Uninoculated Fruit, painted on Lid, 5 mg, Day 1
  Gray Mold Severity (0-4): 0.0
[7]; Uninoculated Fruit, painted on Lid, 5 mg, Day 2
  Gray Mold Severity (0-4): 0.0
[7]; Uninoculated Fruit, painted on Lid, 5 mg, Day 3
  Gray Mold Severity (0-4): 0.2
[7]; Uninoculated Fruit, painted on Lid, 5 mg, Day 4
  Gray Mold Severity (0-4): 1.2
[7]; Uninoculated Fruit, painted on Lid, 5 mg, Day 5
  Gray Mold Severity (0-4): 2.0
[7]; Uninoculated Fruit, painted on Lid, 5 mg, Day 6
  Gray Mold Severity (0-4): 2.0
[7]; Uninoculated Fruit, painted on Lid, 5 mg, Day 7
  Gray Mold Severity (0-4): 2.5
